Experimental data: US12102634B2, “Use of berbamine or its analogue for preventing or treating RNA virus infection” (City University of Hong Kong, priority 2019, dated 2024)
“Also recorded” adds a separate entry of the source. Where two headings read alike, the source gives them in different places.

Assays:
[1] = system: ZIKV; assay: Western blot of ZIKV-E expression in ZIKV-infected A549 cells; conditions: A549 cells pretreated 1 h
[2] = Cytotoxicity in Vero cells; conditions: African green monkey
[3] = Cytotoxicity in Huh7 cells; conditions: human
[4] = system: ACE2; type: cell-based
[5] = system: SARS-CoV-2; assay: SARS-CoV-2 infection of Vero-E6 cells, virus titration assay; type: cell-based; conditions: Severe acute respiratory syndrome coronavirus 2, Vero C1008, read-out: EC50, SARS-CoV-2 viral yield by virus titration assay
Description: FIG. 12F is a plot showing the inhibition rate determined by using virus titer measurement, in which Vero-E6 cells were treated with berbamine at the indicated concentrations for 3 h, followed by infection with SARS-CoV-2.

[6] = system: JEV; assay: Western blot of JEV-NS1 expression in JEV-infected A549 cells; conditions: A549 cells pretreated 1 h
[7] = system: lysosomal Ca^2+ channels; assay: GPN-induced Ca2+ release from lysosomes in Fura-2-loaded HeLa cells; type: cell-based; conditions: 10 μM, 200 μM GPN
Description: (§1) HeLa cells were grown in 24-well plates to ˜80% confluency. The cells were then loaded with HBSS (Gibco, 14025092) containing 4 μM Fura-2 AM (Invitrogen, F1221) and 0.4% Pluronic™ F-127 (Invitrogen, P3000MP) at room temperature for 30 min. The cells were then washed with Ca^2+-free HBSS containing 2 mM EGTA and incubated in Ca^2+-free HBSS in the presence or absence of berbamine (10 μM) at room temperature for another 30 min. Fluorescence images were acquired at 3 s intervals by alternate excitation at 340 nm and 380 nm with emission at 510 nm using a Nikon Eclipse Ti-S Calcium imaging system. Approximately 1 min after live cell imaging, 200 μM GPN (Abcam, ab145914) or 25 μM ML-SA1 (Tocris Bioscience, 4746) was added to the cells to trigger Ca2+ release from the lysosomes.

[8] = system: JEV; assay: High-content image assay (DsRNA immunostaining), JEV infection of A549 cells; conditions: human
[9] = Cytotoxicity in Hela cells; conditions: human
[10] = system: SARS-CoV-2; assay: microbe, parasite or virus in culture; conditions: Severe acute respiratory syndrome coronavirus 2, Vero C1008, read-out: EC50, SARS-CoV-2 viral yield by qRT-PCR assay
[11] = system: DENV-2; assay: DsRNA immunostaining, DENV-2 infection of A549 cells; conditions: pretreated 1 h, about 10 MOI DENV-2, dose dependent
[12] = system: SARS-CoV-2; assay: in vitro; conditions: African green monkey
[13] = system: ZIKV; assay: High-content image assay (DsRNA immunostaining), ZIKV infection of A549 cells; conditions: human
[14] = system: JEV; assay: High-content image assay, JEV infection of JEG-3 cells; conditions: JEG-3 cells pretreated 1 h, about 50 MOI, 18 h
[15] = Cytotoxicity in A549 cells; conditions: human
[16] = system: EV-A71; assay: High-content image assay, EV-A71 infection of RD cells; type: cell-based, enterovirus EV-A71 (EV-71); conditions: 10 MOI EV-71, read-out: EC50 against EV-A71 infection in RD cells
Source text: After viral infection, the cells are fixed.

[17] = system: TRPMLs; assay: ML-SA1-induced cytosolic Ca2+ increase in Fura-2-loaded HeLa cells; type: cell-based; conditions: 10 μM, 25 μM ML-SA1
Description: as §1

[18] = system: ZIKV; assay: High-content image assay, ZIKV infection of JEG-3 cells; conditions: JEG-3 cells pretreated 1 h, about 50 MOI, 18 h
[19] = system: DPP4; type: cell-based
[20] = system: JEV; assay: JEV lethal challenge in mice; type: in vivo, BALB/c mice; conditions: 15 days
Description: JEV-infected with berbamine-treated group. For infection, mice were injected intraperitoneally with approximately 10^6.5 TCID50 of JEV. For the berbamine treatment group, mice were injected intraperitoneally with a dose of 15 mg/kg berbamine or PBS daily. For the control-vehicle group, mice were injected intraperitoneally with a dose of 50 mg/kg PBS daily. Survival rate and change of body weight if the mice in each group were monitored for 15 days after JEV injection.

[21] = system: ZIKV; assay: ZIKV entry, anti-ZIKV envelope protein immunostaining in A549 cells; conditions: ZIKV on ice 1 h, then 37° C. 40 min
[22] = system: JEV; assay: JEV-induced cell death in A549 or BHK-21 cells; conditions: pretreated A549 cells or BHK-21 cells
[23] = system: lentivirus; assay: Lentivirus (histone B-RFP) infection of A549 cells; type: cell-based; conditions: pretreated A549 cells, lentivirus encoding histone B-RFP
[24] = system: MERS-CoV; type: cell-based
[25] = system: MLV-SARS-CoV-2 S pseudotyped particles; type: cell-based
[26] = system: MERS-SARS-CoV S pseudotyped particles; type: cell-based
[27] = Cytotoxicity in BHK-21 cells; conditions: Syrian hamster
[28] = system: JEV; assay: Virus titration assay, JEV production in A549 cells; conditions: A549 cells pretreated
[29] = system: Huh7 cells; assay: Secretion of extracellular vesicles by Huh7 cells, nanoparticle tracking analyzer; type: cell-based
Description: The EVs were collected from the culture medium of control or berbamine-treated Huh7 cells, and their concentration and distribution of sizes were determined with a nanoparticle tracking analyzer.
The inventors then examined whether these EVs contain elevated levels of ACE2 or DPP4 in the berbamine-treated group when compared with the control group. Thus, EVs in the culture medium from the control and berbamine-treated Huh7 cells were collected by ultracentrifugation, and the protein levels of ACE2 and DPP4 were analyzed by immunoblot analysis. […] The inventors also speculated that the increase in the secretion of ACE2 and DPP4-containing exosomes out of cells might lead to the reduced levels of these receptors in berbamine-treated cells. […] Similar results regarding the effects of berbamine on the expression of ACE2 in cells or EVs have also observed in A549 cells (FIGS. 15D and 15E). […] This leads to an increase in the level of secretion of ACE2 or DPP4 via EVs and a concomitant decrease in their levels at the plasma membrane.
Purification of extracellular vesicles from the culture medium-A549 cells or Huh7 cells were grown in 15-cm dishes to ˜80% confluency. The cells were then rinsed with PBS and incubated in EV-depleted complete medium containing DMSO or berbamine (25 μM) for 48 h. […]

[30] = EVs from treated Huh7 cell culture medium
[31] = Vero-E6 cells, cycloheximide, 50 μM, 6 h
[32] = 15 mg/kg intraperitoneally daily, vs control group

COc1cc2c3cc1Oc1c(OC)c(OC)cc4c1[C@@H](Cc1ccc(O)c(c1)Oc1ccc(cc1)C[C@@H]3N(C)CC2)N(C)CC4 [berbamine]
protein expression of ZIKV-E [1]: markedly inhibited
CC50 [2]: 115 ± 5.3 µM
CC50 [3]: 90.4 ± 2.98 µM
level of ACE2 in EVs [4, 30]: markedly increased
level of ACE2 in cells [4, 31]: markedly decreased
EC50 [5]: ~4.7 µM
protein expression of JEV-NS1 [6]: markedly inhibited
GPN-induced cytosolic Ca2+ increase [7]: significantly inhibited
selectivity ratio [8]: 78.2
CC50 [9]: 115 ± 3.6 µM
EC50 [10]: ~2300 nM
DENV-2 infection in A549 cells [11]: significantly inhibit
selectivity ratio [12]: 48.9
selectivity ratio [13]: 58.4
JEV infection in JEG-3 cells [14]: significantly inhibited
CC50 [15]: 127 ± 3.9 µM
EC50 [16]: ~17.3 µM
EC50 ([16]; Enterovirus A, EV71 / EVA71, RD): ~17 µM
ML-SA1-induced cytosolic Ca2+ increase [17]: significantly inhibited
ZIKV infection in JEG-3 cells [18]: significantly inhibited
level of DPP4 in EVs [19, 30]: markedly increased
level of DPP4 in cells [19, 31]: markedly decreased
body weight change of mice after JEV challenge [20, 32]: less weight changes
survival rate of mice after JEV challenge [20, 32]: increases the survival rate
survival rate of mock (uninfected) mice given compound vs mock group ([20]; mock group with 15 mg/kg): same survival rate
entry of ZIKV into host cells [21]: inhibitory effect
JEV-induced cell death [22]: markedly reduced
lentivirus infection of A549 cells [23]: abolished
extracellular level of MERS-CoV RNA [24]: significantly decreased
intracellular level of MERS-CoV RNA [24]: significantly decreased
entry of MLV-SARS-CoV-2 S pseudovirus particles [25]: effectively inhibited; also recorded: inhibited the entry
entry of MERS-SARS-CoV S pseudovirus particles [26]: effectively inhibited; also recorded: inhibited the entry
CC50 [27]: 127 ± 2.43 µM
production of JEV (virus titer) [28]: significantly inhibited; also recorded: markedly inhibited
secretion of EVs [29]: significantly promoted
